Reference: patent US10071034B2, “Solvent compositions” (Amyris, Inc., priority 2014, dated 2018)

Test: Oxidative stability
Format: physicochemical
Procedure: For each sample, a test composition was stored for 104 weeks at 25° C. The amount of composition remaining was tested and compared to the amount at the initial time. Further samples were stored for 6 days at 60° C. The amount of composition remaining was tested and compared to the amount at the initial time.

## C=C(C)[C@H]1CC=C(C)CC1 [d-limonene]
6 Days @ 60° C.
  amount of composition remaining compared to initial: 52.3%
104 Weeks @ 25° C.
  amount of composition remaining compared to initial: 24.0%
d-limonene versus Example 2 composition
  oxidative stability in comparison: less than that of the present solvent embodiment
